What all share (type): functional
What all share (parameters): scale not given: the % may be the effect or the level left

Experiment [1] concerns Mus musculus. Briefly: Reduction in plasma triglyceride level in alloxan-induced diabetic mouse at 10 mg/kg/day, po after 15 days relative to control.
Experiment [2] concerns Mus musculus. Briefly: Reduction in plasma triglyceride level in alloxan-induced diabetic mouse at 30 mg/kg/day, po after 15 days relative to control.
Experiment [3] has as its system Mus musculus. As to the kind of experiment: Reduction in plasma triglyceride level in alloxan-induced diabetic mouse at 5 mg/kg/day, po after 15 days relative to control.
Experiment [4] relates to Mus musculus. Briefly: Reduction in plasma glucose level in alloxan-induced diabetic mouse at 5 mg/kg/day, po after 15 days relative to control.
For experiment [5], the system named is Mus musculus. Briefly: Reduction in plasma glucose level in alloxan-induced diabetic mouse at 30 mg/kg/day, po after 15 days relative to control.
Experiment [6] deals with Mus musculus. Briefly: Reduction in plasma glucose level in alloxan-induced diabetic mouse at 10 mg/kg/day, po after 15 days relative to control.
In experiment [7] the test system is Mus musculus. Briefly: Reduction in plasma glucose level in alloxan-induced diabetic mouse at 40 mg/kg/day, po after 15 days relative to control.
The subject of experiment [8] is Mus musculus. Briefly: Reduction in plasma triglyceride level in alloxan-induced diabetic mouse at 20 mg/kg/day, po after 15 days relative to control.
Experiment [9] concerns Mus musculus. Briefly: Reduction in plasma glucose level in alloxan-induced diabetic mouse at 20 mg/kg/day, po after 15 days relative to control.
The test system of experiment [10] is Mus musculus. As to the kind of experiment: Reduction in plasma triglyceride level in alloxan-induced diabetic mouse at 40 mg/kg/day, po after 15 days relative to control.

For `COc1ccc(/C=C2\SC(=O)N(Cc3ccc(C)cc3)C2=O)cc1`, the Activity in the experiment on Mus musculus [1] came to 37.6%; with Mus musculus [2], 58.8%; with Mus musculus [3], 32.2%; with Mus musculus [4] it was 27.2%; in the experiment with Mus musculus [5], 50.8%; in the experiment on Mus musculus [6], 20.6%.

As to `COc1ccc(/C=C2\SC(=O)N(Cc3ccc(C)cc3)C2=O)c(OC)c1`, the Activity in the experiment on Mus musculus [1] is 40%; in the experiment with Mus musculus [2] it was 46.5%; in the experiment on Mus musculus [5], 34.6%; in the experiment with Mus musculus [6] it was 21.8%; in the experiment with Mus musculus [7], 20.1%.

As to `Cc1ccc(CN2C(=O)S/C(=C\c3ccc(N(C)C)cc3)C2=O)cc1`, the Activity in the experiment on Mus musculus [8] came out at 17.4%; with Mus musculus [2] it was 44.1%; in the experiment on Mus musculus [5], 40.8%; in the experiment on Mus musculus [9], 35.8%; in the experiment on Mus musculus [6] it was 14.9%.

As to `Cc1ccc(/C=C2\SC(=O)N(Cc3ccc(C)cc3)C2=O)cc1`, the values for the Activity in the experiment with Mus musculus [1] and in the experiment with Mus musculus [6] were 41.7% and 16.3%, respectively.

Turning to `Cc1ccc(CN2C(=O)S/C(=C\c3ccccc3Cl)C2=O)cc1`, the Activity in the experiment with Mus musculus [8] was 20%; with Mus musculus [1], 14.8%; with Mus musculus [2], 26%; in the experiment on Mus musculus [5], 43.3%; with Mus musculus [9] it was 47%; in the experiment with Mus musculus [6] it was 19.2%.

Take `Cc1ccc(CN2C(=O)S/C(=C\c3ccc(O)cc3)C2=O)cc1`: the Activity in the experiment with Mus musculus [5] was determined as 37.3%; in the experiment on Mus musculus [6] it was 19.9%; in the experiment with Mus musculus [7], 37.2%.

With `Cc1ccc(CN2C(=O)S/C(=C\c3ccc(Cl)cc3)C2=O)cc1`, the Activity in the experiment on Mus musculus [10] is recorded as 27.1%; in the experiment on Mus musculus [2], 48%; in the experiment with Mus musculus [5] it was 22.8%; with Mus musculus [6], 18.7%; in the experiment with Mus musculus [7], 31.5%.

Regarding `Cc1ccc(CN2C(=O)S/C(=C\c3ccc([N+](=O)[O-])cc3)C2=O)cc1`, the Activity is 7.1% in the experiment with Mus musculus [2] and 11.42% with Mus musculus [5].

For the molecule `Cc1ccc(CN2C(=O)S/C(=C\c3cccc(Br)c3)C2=O)cc1`, the Activity with Mus musculus [1] is listed as 17.6%; with Mus musculus [6], 21.3%.

Consider `Cc1ccc(CN2C(=O)S/C(=C\c3ccc(F)cc3)C2=O)cc1`, for which, in the experiment on Mus musculus [5], the Activity was determined as 13.5%.

As to `CN(CCOc1ccc(CC2SC(=O)NC2=O)cc1)c1ccccn1` (stereo not drawn) [ROSIGLITAZONE], the Activity was 43.3% with Mus musculus [1]; 6.4% with Mus musculus [2]; 15.9% with Mus musculus [3]; 26.3% with Mus musculus [4]; 11.6% in the experiment on Mus musculus [5]; 36.7% with Mus musculus [6].

The record behind these values is ChEMBL document CHEMBL1148013, “Synthesis, biological evaluation and molecular modeling studies of arylidene-thiazolidinediones with potential hypoglycemic and hypolipidemic activities” (2007).
